# Patent publication EP0094564A2, “Azolyl-methyl oxiranes, their preparation and use as medicaments and plant protecting agents” (BASF Aktiengesellschaft, priority 1982, dated 1983)
# How the values were obtained:
# [1] = test system: Abs. corym. 1; assay: Agar dilution test, minimal inhibitory concentration in vitro; format: cell-based; settings: read-out: Minimale Hemmkonzentration (MHK) Abs. corym. 1
# Excerpt: (§1) Die Wirkung gegen Dermatophyten, Bakterien und Protozonen kann nach Methoden, wie sie beispielsweise in P. Klein, Bakteriologische Grundlagen der chemotherapeutischen Laboratoriumspraxis, Springer-Verlag Berlin, 1957, beschrieben wird, aufgezeigt werden. Die überraschende Wirkung gegenüber Hefen wurde im Pseudomyzel- und Myzelphasentest mit Candida albicans nachgewiesen (vgl. DE-OS 30 10 093). Es wurde geprüft, welche minimalen Hemmkonzentrationen (MHK-Werte) im Agardilutionstest erreicht werden. In der Tabelle 1 sind die Ergebnisse zusammengefaßt.
# [2] = test system: Aps.fum. 2; assay: as above; format: cell-based; settings: read-out: Minimale Hemmkonzentration (MHK) Aps.fum. 2
# Excerpt: as §1
# [3] = test system: E.coli muta-flor; assay: as above; format: cell-based; settings: Escherichia coli, read-out: Minimale Hemmkonzentration (MHK) E.coli muta-flor
# Excerpt: as §1
# [4] = test system: Epid. flocc. 157; assay: as above; format: cell-based; settings: read-out: Minimale Hemmkonzentration (MHK) Epid. flocc. 157
# Excerpt: as §1
# [5] = test system: Microsp. ferrug. 5; assay: as above; format: cell-based; settings: read-out: Minimale Hemmkonzentration (MHK) Microsp. ferrug. 5
# Excerpt: as §1
# [6] = test system: Mucor pus. 6; assay: as above; format: cell-based; settings: read-out: Minimale Hemmkonzentration (MHK) Mucor pus. 6
# Excerpt: as §1
# [7] = test system: Staph. aur. SG 511; assay: as above; format: cell-based; settings: read-out: Minimale Hemmkonzentration (MHK) Staph. aur. SG 511
# Excerpt: as §1
# [8] = test system: Strept. faec. 8043; assay: as above; format: cell-based; settings: read-out: Minimale Hemmkonzentration (MHK) Strept. faec. 8043
# Excerpt: as §1
# [9] = test system: Trichoph. ment. 21; assay: as above; format: cell-based; settings: read-out: Minimale Hemmkonzentration (MHK) Trichoph. ment. 21
# Excerpt: as §1
# [10] = test system: Cand.alb. H; assay: Candida albicans pseudomycelium/mycelium phase test, MIC; format: cell-based; settings: in vitro, column H, read-out: Minimale Hemmkonzentration (MHK) Cand.alb. H
# Excerpt: as §1
# [11] = test system: Cand.alb. M; assay: Candida albicans pseudomycelium/mycelium phase test, MIC (column M); format: cell-based; settings: in vitro, read-out: Minimale Hemmkonzentration (MHK) Cand.alb. M
# Excerpt: as §1
# [12] = test system: Entamoeb hist.; assay: Minimal inhibitory concentration in vitro (protozoa); format: cell-based; settings: read-out: Minimale Hemmkonzentration (MHK) Entamoeb hist.
# Excerpt: as §1
# [13] = test system: Trichom. vag.; assay: as above; format: cell-based; settings: read-out: Minimale Hemmkonzentration (MHK) Trichom. vag.
# Excerpt: as §1
# [14] = test system: Gurkenmehltau (Erysiphe cichoracearum); assay: Versuch 3: activity against cucumber powdery mildew on cucumber seedlings; format: in vivo; settings: 0,025 %ige Spritzbrühe; sprayed about 20 h after inoculation; assessed after 21 days; value given as 'beispielsweise'
# Excerpt: Blätter von in Töpfen gewachsenen Gurkenkeimlingen der Sorte "Chinesische Schlange" wurden im Zweiblattstadium mit einer Sporensuspension des Gurkenmehltaus (Erysiphe cichoracearum) besprüht. Nach etwa 20 Stunden wurden die Versuchspflanzen mit wäßriger Spritzbrühe, die 80 % Wirkstoff und 20 % Emulgiermittel in der Trockensubstanz enthielt, bis zur Tropfnässe besprüht. Nach dem Antrocknen des J Spritzbelages wurden sie anschließend im Gewächshaus bei Temperaturen zwischen 20 und 22^00 und 70 bis 80 % relativer Luftfeuchtigkeit aufgestellt. Zur Beurteilung der Wirksamkeit der neuen Stoffe wurde das Ausmaß der Pilzentwicklung nach 21 Tagen beurteilt.
# [15] = test system: Weizenbraunrost (Puccinia recondita); assay: Versuch 2: activity against wheat brown rust on wheat seedlings; format: in vivo; settings: 0,025; 0,006; 0,0015 %ige Spritzbrühen; sprayed 24 h after inoculation; assessed after 8 days; value given as 'beispielsweise'
# Protocol: Blätter von in Töpfen gewachsenen Weizensämlingen der Sorte "Jubilar" wurden mit Sporen des Braunrostes (Puccinia recondita) bestäubt. Danach wurden die Töpfe für 24 Stunden bei 20 bis 22°C in eine Kammer mit hoher Luftfeuchtigkeit (90 bis 95 %) gestellt. Während dieser Zeit keimten die Sporen aus und die Keimschläuche drangen in das Blattgewebe ein. Die infizierten Pflanzen wurden anschließend mit wäßrigen Spritzbrühen, die 80 % Wirkstoff und 20 % Emulgiermittel in der Trockensubstanz enthielten, tropfnaß gespritzt. Nach dem Antrocknen des Spritzbelages wurden die Versuchspflanzen im Gewächshaus bei Temperaturen zwischen 20 und 22°C und 65 bis 70 % relativer Luftfeuchte aufgestellt. Nach 8 Tagen wurde das Ausmaß der Rostpilzentwicklung auf den Blättern ermittelt.
# [16] = test system: Botrytis cinerea; assay: Versuch 4: activity against Botrytis cinerea on paprika seedlings; format: in vivo; settings: 0,05 %ige Spritzbrühe; sprayed before inoculation; assessed after 5 days; value given as 'beispielsweise'
# Excerpt: Paprikasämlinge der Sorte "Neusiedler Ideal Elite" wurden, nachdem sich 4 bis 5 Blätter gut entwickelt hatten, mit wäßrigen Suspensionen, die 80 % Wirkstoff und 20 % Emulgiermittel in der Trockensubstanz enthielten, tropfnaß gespritzt. Nach dem Antrocknen des Spritzbelages wurden die Pflanzen mit einer Konidienaufschwemmung des Pilzes Botrytis cenerea besprüht und bei 22 bis 24 C in eine Kammer mit hoher Luftfeuchtigkeit gestellt. Nach 5 Tagen hatte sich die Krankheit auf den unbehandelten Kontrollpflanzen so stark entwickelt, daß die entstandenen Blattnekrosen den überwiegenden Teil der Blätter bedeckten.
# [17] = test system: Weizenmehltau (Erysiphe graminis var. tritici); assay: Versuch 1: activity against wheat powdery mildew on wheat seedlings; format: in vivo; settings: 0,025; 0,006; 0,0015 %ige Spritzbrühen; sprayed 24 h before inoculation; assessed after 7 days; value given as 'beispielsweise'
# Protocol: Blätter von in Töpfen gewachsenen Weizenkeimlingen der Sorte "Jubilar" wurden mit wäßriger Spritzbrühe, die 80 % (Gew.%) Wirkstoff und 20 % Emulgiermittel in der Trockensubstanz enthielt, besprüht und 24 Stunden nach dem Antrocknen des Spritzbelages mit Oidien (Sporen) des Weizenmehltaus (Erysiphe graminis var. tritici) bestäubt. Die Versuchspflanzen wurden anschließend im Gewächshaus bei Temperaturen zwischen 20 und 22 °C und 75 bis 80 % relativer Luftfeuchtigkeit aufgestellt. Nach 7 Tagen wurde das Ausmaß der Mehltauentwicklung ermittelt.
# [18] = test system: Pullularia pullulans; assay: Versuch 5: filter paper disc inhibition zone test on malt extract agar; format: cell-based; settings: 72 h, discs soaked with 0,2 ml of 200 ppm solution, 3 days at 22 to 24 °C, read-out: Wirksamkeit gegen Pullularia pullulans
# Protocol: Filtrierpäpierscheiben mit einem Durchmesser von 13 mm und einer Stärke von 1 mm werden mit 0,2 ml Lösungen getränkt, die jeweils 200 Teile Wirkstoff je Million Teile Lösung (ppm) enthalten. Die Scheiben werden dann auf einem 2 %igen Malzextraktagar in Petrischalen gelegt, die zuvor getrennt mit Sporen des holzverfärbenden Pilzes Pullularia pullulans beimpft wurden. Anschließend werden die Schalen 3 Tage lang bei 22 bis 24 °C bebrütet. Nach dieser Zeit hat sich der Pilz in den Kontrollschalen sehr gut entwickelt.
# Die fungizide Wirksamkeit der Wirkstoffe wird anhand der um die Filtrierpapierscheiben herum entstandenen pilzfreien Zonen (Hemmhöfe) wie folgt beurteilt: […]
# [19] = test system: Chaetomium globosum; assay: Versuch 6: fungal growth on malt extract agar containing active ingredient; format: cell-based; parameters: key: 0 = kein Pilzwachstum (Pilzmyzel abgetötet); 1 = geringes Pilzwachstum (bis 1/3 der Agaroberfläche bewachsen); 3 = mittleres Pilzwachstum (bis 2/3 der Agaroberfläche bewachsen); 5 = ungehemmtes Pilzwachstum (gesamte Agaroberfläche bewachsen); settings: 40 ppm in 5 % malt extract agar; 5 days at 25 °C; growth score
# Excerpt: (§2) Die Wirkstoffe werden in Aceton gelöst, in Mengen von 40 ppm einem verflüssigten 5 %igen Malzextraktagar zugesetzt. Der Agar wird in Petrischalen ausgegossen und nach dem Erstarren werden die fungizidhaltigen Nähragarplatten zentral mit Myzel der holzzerstörenden Pilze Coniophora puteana und Trametes versicolor, des Moderfäule und Stockflecken verursachenden Pilzes Chaetomium globosum sowie mit Sporen des grünen Holzschimmels Trichoderma viride beimpft.
# (§3) Nach fünftägiger Bebrütung der Schalen bei 25 °C wird die Entwicklung der Pilzkolonien auf dem Nährboden im Vergleich mit der Kontrolle (ohne Wirkstoff-Zusatz) beurteilt: • 0 = kein Pilzwachstum (Pilzmyzel abgetötet) • 1 = geringes Pilzwachstum (bis 1/3 der Agaroberfläche bewachsen) • 3 = mittleres Pilzwachstum (bis 2/3 der Agaroberfläche bewachsen) • 5 = ungehemmtes Pilzwachstum (gesamte Agaroberfläche bewachsen)
# [20] = test system: Coniophora puteana; assay: as above; format: cell-based; parameters: key: 0 = kein Pilzwachstum (Pilzmyzel abgetötet); 1 = geringes Pilzwachstum (bis 1/3 der Agaroberfläche bewachsen); 3 = mittleres Pilzwachstum (bis 2/3 der Agaroberfläche bewachsen); 5 = ungehemmtes Pilzwachstum (gesamte Agaroberfläche bewachsen); settings: 40 ppm in 5 % malt extract agar; 5 days at 25 °C; growth score
# Excerpt: as §2, §3
# [21] = test system: Trametes versicolor; assay: as above; format: cell-based; parameters: key: 0 = kein Pilzwachstum (Pilzmyzel abgetötet); 1 = geringes Pilzwachstum (bis 1/3 der Agaroberfläche bewachsen); 3 = mittleres Pilzwachstum (bis 2/3 der Agaroberfläche bewachsen); 5 = ungehemmtes Pilzwachstum (gesamte Agaroberfläche bewachsen); settings: 40 ppm in 5 % malt extract agar; 5 days at 25 °C; growth score
# Excerpt: as §2, §3
# [22] = test system: Trichoderma viride; assay: as above; format: cell-based; parameters: key: 0 = kein Pilzwachstum (Pilzmyzel abgetötet); 1 = geringes Pilzwachstum (bis 1/3 der Agaroberfläche bewachsen); 3 = mittleres Pilzwachstum (bis 2/3 der Agaroberfläche bewachsen); 5 = ungehemmtes Pilzwachstum (gesamte Agaroberfläche bewachsen); settings: 40 ppm in 5 % malt extract agar; 5 days at 25 °C; growth score
# Excerpt: as §2, §3
Compound,MIC [1],MIC [2],MIC [3],MIC [4],MIC [5],MIC [6],MIC [7],MIC [8],MIC [9],MIC [10],MIC [11],MIC [12],MIC [13],fungizide Wirkung gegen Gurkenmehltau [14],fungizide Wirkung gegen Weizenbraunrost [15],fungizide Wirkung gegen Botrytis cinerea an Paprika [16],other results
"CC(C)(C)c1ccc(C2OC2(Cn2ccnc2)c2ccc(Cl)cc2Cl)cc1 (single isomer, unassigned) [Beispiel 21]",16 µg/mL,> 128 µg/mL,> 128 µg/mL,16 µg/mL,8 µg/mL,8 µg/mL,8 µg/mL,2 µg/mL,16 µg/mL,2 µg/mL,1 µg/mL,> 1 µg/mL,> 16 µg/mL,,,,
"Clc1ccc(C2(Cn3ccnc3)OC2c2ccc(Br)cc2)cc1 (single isomer, unassigned) [Beispiel 47]",2 µg/mL,16 µg/mL,> 128 µg/mL,1 µg/mL,0.25 µg/mL,2 µg/mL,8 µg/mL,4 µg/mL,1 µg/mL,64 µg/mL,0.0156 µg/mL,> 1 µg/mL,> 16 µg/mL,,,,
"CC(C)(C)C1(Cn2ccnc2)OC1c1ccc(Cl)cc1Cl (single isomer, unassigned) [Beispiel 18]",32 µg/mL,0.5 µg/mL,> 128 µg/mL,0.25 µg/mL,0.25 µg/mL,16 µg/mL,4 µg/mL,2 µg/mL,0.5 µg/mL,> 16 µg/mL,,> 1 µg/mL,> 16 µg/mL,100%,,,
"COc1cccc(C2OC2(Cn2cncn2)c2ccc(Cl)cc2)c1 (single isomer, unassigned) [Beispiel 30]",16 µg/mL,> 128 µg/mL,> 128 µg/mL,8 µg/mL,2 µg/mL,8 µg/mL,> 128 µg/mL,> 128 µg/mL,8 µg/mL,64 µg/mL,2 µg/mL,> 1 µg/mL,> 16 µg/mL,,100%,97%,
"Clc1ccc(C2OC2(Cn2cncn2)c2ccc(-c3ccccc3)cc2)cc1 (single isomer, unassigned) [Beispiel 42]",,,,,,,,,,,,,,100%,100%,97%,fungizide Wirkung gegen Weizenmehltau [17]: 100%; zone of inhibition at 200 ppm [18]: > 6 mm; Wirksamkeit gegen Chaetomium globosum [19]: 0; Wirksamkeit gegen Coniophora puteana [20]: 0; Wirksamkeit gegen Trametes versicolor [21]: 0; Wirksamkeit gegen Trichoderma viride [22]: 0
